Experimental data published in US11667643B2, “RIP1K inhibitors” (priority 2020, dated 2023).
Where two headings read alike, the source gives them in different places.

Tests used:
U937 cells = experiment: U937 cell necroptosis assay (TNFa + zVAD, CellTiter-Glo recovery), functional human RIP1 assay; assay type: cell-based
Experimental: (§1) In this example, U937 and L929 cells were exposed to compounds of the present disclosure and a cell necroptosis assay was conducted to evaluate compound activity in functional human RIP1 and murine RIP1 assays.
(§2) U937 and L929 cells were obtained from the American Type Culture Collection (Manassa, Va., USA). Both cells were maintained in logarithmic growth phase in complete RPMI 1640 media (Sigma, ST Louis, Mo., USA) supplemented with 10% fetal bovine serum (Sigma, ST Louis, Mo., USA) at 37° C. with 5% CO2. For necroptosis assay, L929 cells were plated for 18 h in 100 μL/well medium at 10K cells/well in Costar 96-well black clear-bottom plates (Fisher Scientific, Hampton, N.H., USA); U937 cells were plated on the day of the assay in 50 μL/well medium containing 60 uM zVAD-fmk (Lonza, Basel, Switzerland) at 50K cells/well. Medium from L929 cells were removed from the 96-well plates and replaced with 50 μL/well new medium containing 40 uM zVAD-fmk. Each compound of the present disclosure evaluated in this example was serially diluted in DMSO from 2.5 mM in 4-fold dilutions, and then diluted 1:125 in complete medium. 50 μL/well 2× of the compound was then added to the cells in the plates. The cells were pre-incubated with the compound for 1 hour at 37° C. with 5% CO2 and before addition of 10 μL/well 11×TNFa (Peprotech, Rocky Hill, N.J., USA) to give a final concentration of 2 ng/mL for TNFa. The relative amount of necroptosis cells was determined by luminescent using a Wallac Victor2 Luminometer (PerkinElmer, Waltham, Mass., USA) and a CellTiter-Glo® Luminescent Cell Viability Reagent Assay (Promega, Madison, Wis., USA) added per manufacturer instructions after 18 hours of TNFa stimulation at 37° C. with 5% CO2. This example establishes that embodiments of the compounds described herein have unexpectedly potent activity against human RIP1 and murine RIP1, which allows their assessment in in vivo mouse models of disease.

L929 cells = experiment: L929 cell necroptosis assay (TNFa + zVAD, CellTiter-Glo recovery), functional murine RIP1 assay; assay type: cell-based
Experimental: as §1, §2

RIPK1 = RIPK1 (Homo sapiens (Human), UniProt Q13546); experiment: biochemical; assay type: biochemical; conditions: RIPK1 enzyme 31 ng/well, 30° C. for 30 minutes, luminescence; read-out: RIPK1 ADP-Glo Kinase (IC50)
Sequence of RIPK1 (Q13546 whole entry, species assumed): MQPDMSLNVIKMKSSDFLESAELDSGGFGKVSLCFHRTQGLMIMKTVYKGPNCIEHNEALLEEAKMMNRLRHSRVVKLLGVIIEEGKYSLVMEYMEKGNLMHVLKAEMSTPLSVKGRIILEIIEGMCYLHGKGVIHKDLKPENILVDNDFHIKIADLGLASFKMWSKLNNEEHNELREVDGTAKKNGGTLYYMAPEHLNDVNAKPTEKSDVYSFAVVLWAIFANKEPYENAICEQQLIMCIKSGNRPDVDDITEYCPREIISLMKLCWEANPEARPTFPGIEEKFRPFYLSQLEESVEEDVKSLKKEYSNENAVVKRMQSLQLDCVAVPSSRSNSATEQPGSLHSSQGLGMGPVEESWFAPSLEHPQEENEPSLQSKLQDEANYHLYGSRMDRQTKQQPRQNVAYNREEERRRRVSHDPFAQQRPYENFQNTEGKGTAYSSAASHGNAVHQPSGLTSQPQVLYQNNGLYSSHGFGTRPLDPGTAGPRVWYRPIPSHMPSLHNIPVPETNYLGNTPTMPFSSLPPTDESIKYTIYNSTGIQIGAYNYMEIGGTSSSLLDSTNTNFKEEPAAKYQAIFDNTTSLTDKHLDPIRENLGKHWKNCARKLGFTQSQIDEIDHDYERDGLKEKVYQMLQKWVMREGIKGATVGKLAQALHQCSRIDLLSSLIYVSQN
Experimental: In this example, compounds of the disclosure were evaluated using a biochemical assay using the ADP-Glo™ technology.
ADP-Glo™ (Promega, Madison, Wis., USA) reagents were thawed at ambient temperature. Kinase Detection Reagent was prepared by mixing kinase detection buffer with the lyophilized kinase detection substrate.
A […] stock volume of 5× Reaction Kinase Buffer was made by mixing 1000 μl of 1M MgCl2, 500 μl of 1M Tris-HCL pH7.4, 0.5 mg/ml (25 mg) of BSA, and 3475 μl of distilled H2O. A 3 ml 2× working stock volume of Reaction Kinase Buffer was made containing a final concentration of 100 μM DTT and 4 mM MnCl2.
Components of RIPK1 enzyme (Rigel Pharmaceuticals, South San Francisco, Calif., USA) were thawed on ice. Diluted RIPK1 was prepared in 1× Kinase Reaction Buffer (diluted from 2× buffer) to 31 ng/well.
1.0 ul of diluted compound was added to a 384 well plate in duplicate. […] The final reaction volume was 5.0 μl. The plate was quickly centrifuged and the reaction was incubated at 30° C. for 30 minutes. Adding 5 μl of ADP-Glo™ terminated the reaction. The plate was quickly centrifuged and the reaction was incubated at room temperature for 40 minutes. Kinase Detection Reagent was then added and incubated at room temperature for 30 minutes. The relative light unit (RLU) of kinase reaction was determined by luminescent (Luminescence 0.1 s) using a Wallac Victor2 Luminometer (PerkinElmer, Waltham, Mass., USA).

[1] = Homo sapiens, U-937, 18 h, read-out: U937 Zvad TNF CTG Recovery, U937, TNFa + zVAD (IC50), U937 cells, zVAD-fmk, TNFa 2 ng/mL, 18 hours, CellTiter-Glo
[2] = Mus musculus, L929, 18 h, read-out: L929-CTG-recovery, L929, TNFa + zVAD (IC50), L929 cells, zVAD-fmk, TNFa 2 ng/mL, 18 hours, CellTiter-Glo
[3] = read-out: U937 Zvad TNF CTG Recovery, U937, TNFa + zVAD (IC50), U937 cells, zVAD-fmk, TNFa 2 ng/mL, 18 hours, CellTiter-Glo
[4] = read-out: L929-CTG-recovery, L929, TNFa + zVAD (IC50), L929 cells, zVAD-fmk, TNFa 2 ng/mL, 18 hours, CellTiter-Glo

SMILES	IC50 (U937 cells; [1]) [µM]	IC50 (L929 cells; [2]) [µM]	IC50 (RIPK1) [µM]	IC50 (U937 cells; [3]) [µM]	IC50 (L929 cells; [4]) [µM]
O=C(NC1CCc2ccccc2-n2ccnc21)c1ncn(Cc2ccccc2F)n1 (racemic) [Compound I-14, (±)-N-(5,6-Dihydro-4H-benzo[f]imidazo[1,2-a]azepin-4-yl)-1-(2-fluorobenzyl)-1H-1,2,4-triazole-3-carboxamide]	0.0066	2.34	0.0166		
O=C(NC1COc2ccccc2-n2cccc21)c1cc(Oc2ccccc2)ccn1 (racemic) [Compound I-54, (±)-N-(6,7-Dihydrobenzo[b]pyrrolo[1,2-d][1,4]oxazepin-7-yl)-4-phenoxypicolinamide]	1.25	10000	0.582		
O=C(N[C@H]1COc2ccccc2-n2c1noc2=O)c1n[nH]c(Cc2ccc(F)cc2)n1 [Compound I-50, 5-(4-Fluorobenzyl)-N-((4R)-1-oxo-4,5-dihydro-1H-benzo[6][1,2,4]oxadiazolo[4,3-d][1,4]oxazepin-4-yl)-1H-1,2,4-triazole-3-carboxamide]	0.246	10000	0.109		
O=C(NC1CCc2ccccc2-n2ccnc21)c1n[nH]c(Cc2ccccc2)n1 (single isomer, unassigned) [Compound I-4]				0.203	10000
O=C(NC1CCc2ccccc2-n2ccnc21)c1cc(Cc2ccccc2)on1 (racemic) [Compound I-9, (±)-5-Benzyl-N-(5,6-dihydro-4H-benzo[f]imidazo[1,2-a]azepin-4-yl)isoxazole-3-carboxamide]	0.222	10000	0.0261		
O=C(N[C@H]1COc2ccccc2-n2c1noc2=O)c1n[nH]c(Cc2ccccc2)n1 [Compound I-41, 5-Benzyl-N-((4R)-1-oxo-4,5-dihydro-1H-benzo[6][1,2,4]oxadiazolo[4,3-d][1,4]oxazepin-4-yl)-1H-1,2,4-triazole-3-carboxamide]	0.0481	10000	0.058		
CC(C)(O)C#Cc1ccc2c(c1)-n1ccnc1[C@@H](NC(=O)c1n[nH]c(Cc3ccccc3)n1)CC2 [Compound I-82, (S)-5-Benzyl-N-(9-(3-hydroxy-3-methylbut-1-yn-1-yl)-5,6-dihydro-4H-benzo[f]imidazo[1,2-a]azepin-4-yl)-1H-1,2,4-triazole-3-carboxamide]	0.0084	5.29			
CC(C)(O)C#Cc1ccc2c(c1)-n1ccnc1C(NC(=O)c1n[nH]c(Cc3ccccc3)n1)CO2 (single isomer, unassigned) [Compound I-92]	0.0676	6			
O=C(NC1CCc2ccccc2-n2ccnc21)c1ncn(Cc2c(Cl)cccc2Cl)n1 (single isomer, unassigned) [Compound I-12]				17	10000
Cc1cnc2n1-c1ccccc1CCC2NC(=O)c1n[nH]c(Cc2ccccc2)n1 (racemic) [Compound I-40, (±)-5-Benzyl-N-(1-methyl-5,6-dihydro-4H-benzo[f]imidazo[1,2-a]azepin-4-yl)-1H-1,2,4-triazole-3-carboxamide]	10000	10000			
CN1C(=O)[C@@H](N2CCc3c(nn(Cc4ccccc4)c3Cl)C2=O)COc2cc(C#CC(C)(C)O)ccc21 [Compound I-78]	0.0022	0.0061			
O=C(NC1CCc2ccccc2-n2ccnc21)c1ncn(Cc2c(Cl)cccc2Cl)n1 (single isomer, unassigned) [Compound I-13]				0.003	3.38
CC(C)(O)C#Cc1ccc2c(c1)-n1ccnc1[C@H](NC(=O)c1n[nH]c(Cc3ccccc3)n1)CO2 [Compound I-91, (S)-5-Benzyl-N-(9-(3-hydroxy-3-methylbut-1-yn-1-yl)-4,5-dihydrobenzo[b]imidazo[1,2-d][1,4]oxazepin-4-yl)-1H-1,2,4-triazole-3-carboxamide]	10000	10000			
O=C(NC1CCc2ccccc2-n2ccnc21)c1n[nH]c(Cc2ccccc2)n1 (single isomer, unassigned) [Compound I-5]		10000		86.6	
CC(C)(O)C#Cc1ccc2c(c1)-n1ccnc1C(NC(=O)c1n[nH]c(Cc3ccccc3)n1)CC2 (racemic) [Compound I-55, (±)-5-Benzyl-N-(9-(3-hydroxy-3-methylbut-1-yn-1-yl)-5,6-dihydro-4H-benzo[f]imidazo[1,2-a]azepin-4-yl)-1H-1,2,4-triazole-3-carboxamide]	0.0206	9.5			
O=C(NC1CCc2ccccc2-n2ccnc21)c1n[nH]c(Cc2ccccc2)n1 (racemic) [Compound I-1, (±)-5-Benzyl-N-(5,6-dihydro-4H-benzo[f]imidazo[1,2-a]azepin-4-yl)-1H-1,2,4-triazole-3-carboxamide]	0.376	10000			
CC(C)(O)C#Cc1ccc2c(c1)-n1nnnc1[C@@H](NC(=O)c1cc(O)n(Cc3ccccc3)n1)CO2 [Compound I-76, (R)-1-Benzyl-5-hydroxy-N-(9-(3-hydroxy-3-methylbut-1-yn-1-yl)-4,5-dihydrobenzo[b]tetrazolo[1,5-d][1,4]oxazepin-4-yl)-1H-pyrazole-3-carboxamide]	10000	10000			
O=C(NC1CCc2ccccc2-n2ccnc21)c1ncn(Cc2c(Cl)cccc2Cl)n1 (racemic) [Compound I-7, (±)-1-(2,6-dichlorobenzyl)-N-(5,6-dihydro-4H-benzo[f]imidazo[1,2-a]azepin-4-yl)-1H-1,2,4-triazole-3-carboxamide]	0.0137	12.7			
O=C(N[C@H]1COc2ccccc2-n2nnnc21)c1ncnn1Cc1c(Cl)cccc1Cl [Compound I-10, (R)-1-(2,6-Dichlorobenzyl)-N-(4,5-dihydrobenzo[6]tetrazolo[1,5-d][1,4]oxazepin-4-yl)-1H-1,2,4-triazole-5-carboxamide]	5020	10000			
Cc1cccc(C)c1Cn1cnc(C(=O)N[C@H]2COc3ccccc3-n3nnnc32)n1 [Compound I-20, (R)—N-(4,5-Dihydrobenzo[&]tetrazolo[1,5-d][1,4]oxazepin-4-yl)-1-(2,6-dimethylbenzyl)-1H-1,2,4-triazole-3-carboxamide]	1.56		1.87		
O=C(NC1CCc2ccccc2-n2ccnc21)c1ncnn1Cc1c(Cl)cccc1Cl (racemic) [Compound I-6, (±)-1-(2,6-Dichlorobenzyl)-N-(5,6-dihydro-4H-benzo[f]imidazo[1,2-a]azepin-4-yl)-1H-1,2,4-triazole-5-carboxamide]	885	10000			
O=C(NC1CCc2ccccc2-n2c1nc(Cl)c2Cl)c1cc(Cc2ccccc2)on1 (racemic) [Compound I-70, (±)-5-Benzyl-N-(1,2-dichloro-5,6-dihydro-4H-benzo[f]imidazo[1,2-a]azepin-4-yl)isoxazole-3-carboxamide]	73.4	10000			
CC(C)(O)C#Cc1ccc2c(c1)-n1ccnc1C(NC(=O)c1n[nH]c(Cc3ccccc3)n1)CO2 (racemic) [Compound I-90, (±)-5-Benzyl-N-(9-(3-hydroxy-3-methylbut-1-yn-1-yl)-4,5-dihydrobenzo[b]imidazo[1,2-d][1,4]oxazepin-4-yl)-1H-1,2,4-triazole-3-carboxamide]	0.17	10000			
